Laboratory results: publication PMC10215302 (Antibiotics, 2023)
Values after ≈ are worked out from the molar mass of the structure shown. Like-named read-outs stand apart in the source and are kept apart here.

How the values were obtained:
[1] = tested on: S. aureus SA0077; experiment: microbe, parasite or virus in culture; details: Staphylococcus aureus
[2] = tested on: S. aureus SA0422; experiment: microbe, parasite or virus in culture; details: Staphylococcus aureus
[3] = tested on: S. aureus SA0085; experiment: microbe, parasite or virus in culture; details: Staphylococcus aureus
[4] = tested on: S. aureus ATCC 29213; experiment: microbe, parasite or virus in culture; details: Staphylococcus aureus
[5] = tested on: S. aureus SA0736; experiment: microbe, parasite or virus in culture; details: Staphylococcus aureus
[6] = tested on: S. aureus SA0736
[7] = tested on: S. aureus SA0422
[8] = tested on: S. aureus SA0077
[9] = tested on: S. aureus ATCC 29213
[10] = tested on: S. aureus RN4220
[11] = tested on: S. aureus SA0085
[12] = SA0077, read-out: MIC values, Table S1: SA0077 VAN (derivative after 40 passages on vancomycin)
[13] = ATCC29213, read-out: MIC values
[14] = SA0736, read-out: MIC values, Table S1: SA0736 DAP-W (40 passages on daptomycin, white colonies)
[15] = SA0736, read-out: MIC values, Table S1: SA0736 VAN (derivative after 40 passages on vancomycin)
[16] = SA0077, read-out: MIC values, Table S1: SA0077 Abf (passages on antibiotic-free media)
[17] = SA0077, read-out: MIC values, Table S1: SA0077 DAP (derivative after 40 passages on daptomycin)
[18] = SA0422, read-out: MIC values, Table S1: SA0422 DAP (derivative after 40 passages on daptomycin)
[19] = SA0085, read-out: MIC values, Table S1: SA0085 VAN (derivative after 40 passages on vancomycin)
[20] = ATCC29213, read-out: MIC values, Table S1: ATCC 29213 DAP (derivative after 40 passages on daptomycin)
[21] = ATCC29213, read-out: MIC values, Table S1: ATCC 29213 VAN (derivative after 40 passages on vancomycin)

Compound: COc1c(N2C[C@@H]3CCCN[C@@H]3C2)c(F)cc2c(=O)c(C(=O)O)cn(C3CC3)c12 [Moxifloxacin]
- MIC ([1]; SA0077, read-out: MIC values): 2 µg/mL (≈ 4.98 µM)
- MIC [1, 12]: 4 µg/mL (≈ 9.96 µM)
- MIC ([2]; SA0422, read-out: MIC values): 2 µg/mL (≈ 4.98 µM)
- MIC ([3]; SA0085, read-out: MIC values): 8 µg/mL (≈ 19.9 µM)
- MIC [4, 13]: 0.125 µg/mL (≈ 0.311 µM)
- MIC ([5]; SA0736, read-out: MIC values): 2 µg/mL (≈ 4.98 µM)
- MIC [5, 14]: 4 µg/mL (≈ 9.96 µM)
- MIC [5, 15]: 4 µg/mL (≈ 9.96 µM)

Compound: C/C(=C\C(=O)OCCCCCCCCC(=O)O)C[C@@H]1OC[C@H](C[C@@H]2O[C@H]2[C@@H](C)[C@H](C)O)[C@@H](O)[C@H]1O [Mupirocin]
- MIC ([1]; SA0077, read-out: MIC values): 0.5 µg/mL (≈ 0.999 µM)
- MIC [1, 16]: 1 µg/mL (≈ 2 µM)
- MIC [1, 12]: 1 µg/mL (≈ 2 µM)
- MIC ([2]; SA0422, read-out: MIC values): 1 µg/mL (≈ 2 µM)
- MIC ([3]; SA0085, read-out: MIC values): 1 µg/mL (≈ 2 µM)
- MIC [4, 13]: 1 µg/mL (≈ 2 µM)
- MIC ([5]; SA0736, read-out: MIC values): 1 µg/mL (≈ 2 µM)
- MIC [5, 14]: 0.5 µg/mL (≈ 0.999 µM)

Compound: CO[C@H]1/C=C/O[C@@]2(C)Oc3c(C)c(O)c4c(O)c(c(/C=N/N5CCN(C)CC5)c(O)c4c3C2=O)NC(=O)/C(C)=C\C=C\[C@H](C)[C@H](O)[C@@H](C)[C@@H](O)[C@@H](C)[C@H](OC(C)=O)[C@@H]1C [Rifampicin]
- MIC ([1]; SA0077, read-out: MIC values): 0.004 µg/mL (≈ 0.00486 µM)
- MIC ([2]; SA0422, read-out: MIC values): 0.004 µg/mL (≈ 0.00486 µM)
- MIC ([3]; SA0085, read-out: MIC values): > 4 µg/mL
- MIC [4, 13]: 0.004 µg/mL (≈ 0.00486 µM)
- MIC ([5]; SA0736, read-out: MIC values): 0.004 µg/mL (≈ 0.00486 µM)
- MIC [5, 15]: 0.016 µg/mL (≈ 0.0194 µM)

Compound: Cn1nnc(-c2ccc(-c3ccc(N4C[C@H](CO)OC4=O)cc3F)cn2)n1 [Tedizolid]
- MIC ([1]; SA0077, read-out: MIC values): 0.25 µg/mL (≈ 0.675 µM)
- MIC [1, 16]: 0.125 µg/mL (≈ 0.338 µM)
- MIC [1, 17]: 0.125 µg/mL (≈ 0.338 µM)
- MIC [1, 12]: 0.125 µg/mL (≈ 0.338 µM)
- MIC ([2]; SA0422, read-out: MIC values): 0.25 µg/mL (≈ 0.675 µM)
- MIC [2, 18]: 0.125 µg/mL (≈ 0.338 µM)
- MIC ([3]; SA0085, read-out: MIC values): 0.5 µg/mL (≈ 1.35 µM)
- MIC [3, 19]: 0.06 µg/mL (≈ 0.162 µM)
- MIC [4, 13]: 0.25 µg/mL (≈ 0.675 µM)
- MIC ([5]; SA0736, read-out: MIC values): 0.125 µg/mL (≈ 0.338 µM)

Compound: CN(C)[C@@H]1C(O)=C(C(N)=O)C(=O)[C@@]2(O)C(O)=C3C(=O)c4c(O)cccc4[C@@](C)(O)[C@H]3C[C@@H]12 [Tetracycline]
- MIC ([1]; SA0077, read-out: MIC values): 0.06 µg/mL (≈ 0.135 µM)
- MIC ([2]; SA0422, read-out: MIC values): 0.06 µg/mL (≈ 0.135 µM)
- MIC ([2]; SA0422, read-out: MIC values, Table S1: SA0422 VAN (derivative after 40 passages on vancomycin)): 0.125 µg/mL (≈ 0.281 µM)
- MIC ([3]; SA0085, read-out: MIC values): 32 µg/mL (≈ 72 µM)
- MIC ([3]; SA0085, read-out: MIC values, Table S1: SA0085 DAP (derivative after 40 passages on daptomycin)): 16 µg/mL (≈ 36 µM)
- MIC [3, 19]: 0.125 µg/mL (≈ 0.281 µM)
- MIC [4, 13]: 0.125 µg/mL (≈ 0.281 µM)
- MIC [4, 20]: 0.06 µg/mL (≈ 0.135 µM)
- MIC [4, 21]: 0.5 µg/mL (≈ 1.13 µM)
- MIC ([5]; SA0736, read-out: MIC values): 16 µg/mL (≈ 36 µM)

Compound: CN(C)c1cc(NC(=O)CNC(C)(C)C)c(O)c2c1C[C@H]1C[C@H]3[C@H](N(C)C)C(O)=C(C(N)=O)C(=O)[C@@]3(O)C(O)=C1C2=O [Tigecycline]
- MIC ([1]; SA0077, read-out: MIC values): 0.25 µg/mL (≈ 0.427 µM)
- MIC [1, 16]: 0.06 µg/mL (≈ 0.102 µM)
- MIC [1, 17]: 0.06 µg/mL (≈ 0.102 µM)
- MIC [1, 12]: 0.06 µg/mL (≈ 0.102 µM)
- MIC ([2]; SA0422, read-out: MIC values): 0.125 µg/mL (≈ 0.213 µM)
- MIC [2, 18]: 0.06 µg/mL (≈ 0.102 µM)
- MIC ([3]; SA0085, read-out: MIC values): 0.125 µg/mL (≈ 0.213 µM)
- MIC [4, 13]: 0.03 µg/mL (≈ 0.0512 µM)
- MIC [4, 20]: 0.016 µg/mL (≈ 0.0273 µM)
- MIC [4, 21]: 0.06 µg/mL (≈ 0.102 µM)
- MIC ([5]; SA0736, read-out: MIC values): 0.06 µg/mL (≈ 0.102 µM)
- MIC [5, 15]: 0.125 µg/mL (≈ 0.213 µM)

Compound: oritavancin
- MIC ([6]; SA0736, selecting agent DAP, passage 5): <0.03 µg/mL
- MIC ([6]; SA0736, selecting agent DAP, passage 20): 2 µg/mL
- MIC ([6]; SA0736, selecting agent DAP, passage 40Y (yellow colonies)): 4 µg/mL
- MIC ([6]; SA0736, selecting agent VAN, passage 0): <0.03 µg/mL
- MIC ([6]; SA0736, selecting agent VAN, passage 5): 0.25 µg/mL
- MIC ([6]; SA0736, selecting agent VAN, passage 20): 2 µg/mL
- MIC ([6]; SA0736, selecting agent VAN, passage 40): 2 µg/mL
- MIC values ([6]; Table S1: SA0736 DAP-W (40 passages on daptomycin, white colonies)): 4 µg/mL
- MIC values ([6]; Table S1: SA0736 DAP-Y (40 passages on daptomycin, yellow colonies)): 4 µg/mL
- MIC ([7]; SA0422, selecting agent DAP, passage 5): 0.125 µg/mL
- MIC ([7]; SA0422, selecting agent DAP, passage 20): 0.5 µg/mL
- MIC ([7]; SA0422, selecting agent DAP, passage 40): 0.5 µg/mL
- MIC ([7]; SA0422, selecting agent VAN, passage 0): <0.03 µg/mL
- MIC ([7]; SA0422, selecting agent VAN, passage 5): 0.06 µg/mL
- MIC ([7]; SA0422, selecting agent VAN, passage 20): 0.25 µg/mL
- MIC ([7]; SA0422, selecting agent VAN, passage 40): 0.5 µg/mL
- MIC ([8]; SA0077, selecting agent DAP, passage 5): 2 µg/mL
- MIC ([8]; SA0077, selecting agent DAP, passage 20): 4 µg/mL
- MIC ([8]; SA0077, selecting agent DAP, passage 40): 4 µg/mL
- MIC ([8]; SA0077, selecting agent VAN, passage 0): <0.03 µg/mL
- MIC ([8]; SA0077, selecting agent VAN, passage 5): 0.125 µg/mL
- MIC ([8]; SA0077, selecting agent VAN, passage 20): 2 µg/mL
- MIC ([8]; SA0077, selecting agent VAN, passage 40): 2 µg/mL
- MIC values ([8]; Table S1: SA0077 Abf (passages on antibiotic-free media)): 0.06 µg/mL
- MIC ([9]; ATCC 29213, selecting agent DAP, passage 5): 0.06 µg/mL
- MIC ([9]; ATCC 29213, selecting agent DAP, passage 20): 0.125 µg/mL
- MIC ([9]; ATCC 29213, selecting agent DAP, passage 40): 2 µg/mL
- MIC ([9]; ATCC 29213, selecting agent VAN, passage 0): 0.06 µg/mL
- MIC ([9]; ATCC 29213, selecting agent VAN, passage 5): 0.06 µg/mL
- MIC ([9]; ATCC 29213, selecting agent VAN, passage 20): 0.06 µg/mL
- MIC ([9]; ATCC 29213, selecting agent VAN, passage 40): 4 µg/mL
- MIC values ([10]; Table S1: RN4220 WT): 0.016 µg/mL
- MIC values ([10]; Table S1: RN4220 ∆ (strain with deletion in SACOL1927)): 0.016 µg/mL
- MIC ([11]; SA0085, selecting agent DAP, passage 5): <0.03 µg/mL
- MIC ([11]; SA0085, selecting agent DAP, passage 20): 0.06 µg/mL
- MIC ([11]; SA0085, selecting agent DAP, passage 40): 1 µg/mL
- MIC ([11]; SA0085, selecting agent VAN, passage 0): <0.03 µg/mL
- MIC ([11]; SA0085, selecting agent VAN, passage 5): 0.06 µg/mL
- MIC ([11]; SA0085, selecting agent VAN, passage 20): 2 µg/mL
- MIC ([11]; SA0085, selecting agent VAN, passage 40): 1 µg/mL
- MIC values ([11]; Table S1: SA0085 Abf (passages on antibiotic-free media)): < 0.03 µg/mL
